The text below walks through data of patent US10130713B2, “Cocrystalline DHEA formulations” (University of Houston System, priority 2013, dated 2018).

Format in all cases: physicochemical
Data set [1] can be described thus: Dissolution of formulation slurries (Plasdone S630 + Polysorbate 80) in simulated intestinal fluid. The settings on record: simulated intestinal fluid plus aqueous formulation slurry, aqueous with cosolvent or surfactant or cyclodextrin, thermodynamic from solid; SIF plus water containing 2% Plasdone S630 and 1% Polysorbate 80, 37° C.; read-out: equilibrium solubility in formulation/SIF system. The method, then:
Simulated intestinal fluid (SIF) was prepared by dissolving 21.6 mg of sodium hydroxide, 168.8 mg of sodium dihydrogen phosphate dihydrate, 311.6 mg of sodium chloride, and 113.0 mg of SIF Powder Original (Biorelevant) in 50 mL of water. A 100-mL, round-bottom flask was charged with 10 mL of SIF and a stir bar. The flask was placed in a 37° C. bath and stirring was begun. A 20-mL vial was charged with 10 mL of water and placed in a 37° C. bath.
Based on the inhibitory effects found in the excipient screen, further studies with formulation slurries containing the cocrystals suspended in water were used, in which both Plasdone S-630 and Polysorbate 80 are dissolved. The formulation recipe and dissolution procedure are: bring 5 mL of simulated intestinal fluid (SIF) to 37° C., add about 6 mg of a cocrystal into 5 mL of water (at 37° C.) containing 2% Plasdone S630 and 1% Polysorbate 80 to give the formulation slurry, add the formulation slurry to the SIF, pull samples, filter, and analyze by HPLC. A control experiment was carried out in which DHEA was used instead of a cocrystal.
For FIGS. 44 and 45, to the […]-vial of SIF (20-mL vial was charged with 10 mL of water and placed in a 37° C. bath) 12.1 mg of DHEA (from sample TL876) was added. The vial was capped and shaken, and the resulting slurry was poured into the round-bottom flask. […] The supernatants were analyzed by HPLC. […]

Data set [2] is described as follows: Dissolution study with DHEA concentration measured by HPLC over time. The settings on record: for solubility: aqueous dissolution study (pH 6.8 buffer, ambient temperature). The method, then: High performance liquid chromatography (HPLC) analyses were carried out on an Agilent 1100 series instrument equipped with a UV detector using the following materials and operating parameters:
Calibration data used previously and standards analyzed prior to the samples were used to generate concentrations from peak areas.
At selected time points (10 minutes, 30 minutes, 1 hour, 2 hours, and 5 hours) the slurry was centrifuged and 700 μL of the liquid phase was withdrawn and passed through a 0.5 μm PTFE filter. The filtrate was concentrated in a purge of dry air until all the water evaporated, leaving a solid that was analyzed by HPLC. […] The pH of the filtrate was measured using a Thermo Scientific Orion 3 Star pH meter. The collected solid was analyzed by XRPD. […]
Further dissolution studies with concentration measurements at 10 minutes, 30 minutes, 1 hour, 2 hours, 5 hours, and overnight were conducted. Three such experiments were carried out, using DHEA polymorph form I (FI), the DHEA/D-fructose cocrystal, and the DHEA/glutaric acid cocrystal. […] All of the data are summarized in FIG. 10 through FIG. 14 and the data are plotted in FIG. 15 through FIG. 19.
Note that in each of the plots shown in […] the results of two experiments (time points at <10 min and time points at >10 minutes) are shown on one graph. In order to better visualize the curves, the x axes are in logarithmic scales (FIGS. 15-17). The tables shown in FIGS. 12 and 13 were derived from single experiments having time points at <10 minutes. The x axes on those plots are in linear scales (FIGS. 18 and 19).

Data set [3] can be described thus: Slurry of DHEA in simulated intestinal fluid, solid form by XRPD. Particulars: about 3 hrs at room temperature, XRPD 3171.

Each structure is given as a SMILES string. In brackets after ≈: the same amount, converted by molar mass. Where two headings read alike, the source gives them in different places.

For `C[C@]12CC[C@H](O)CC1=CC[C@@H]1[C@@H]2CC[C@]2(C)C(=O)CC[C@@H]12` [DHEA, Dehydroepiandrosterone], the solubility thermodynamic in data set [1] was 120 to 130 µg/mL.

For `C[C@]12CC[C@H](O)CC1=CC[C@@H]1[C@@H]2CC[C@]2(C)C(=O)CC[C@@H]12` [DHEA polymorph form I (FI), Dehydroepiandrosterone], in data set [2] (10 minutes, 30 minutes, 1 hour, 2 hours, 5 hours, overnight), the “change in concentration of DHEA with time” value is given as “no change in concentration of DHEA with time”. Moreover, the “remaining solids after dissolution experiment” value in data set [2] (after overnight experiment) was “DHEA form S2 (monohydrate)”. Also, in data set [2] (aqueous dissolution study), the “time for transformation of anhydrate to monohydrate to be complete” value is recorded as “about 2 hours”. For the same compound, the solubility in data set [2] (pH 6.8 phosphate buffer, pH 6.8, aqueous buffer, thermodynamic from solid, read-out: solubility) is approximately 30 µg/mL (≈ 104 µM). In addition, in data set [3], the “solid form after slurrying in SIF” value is given as “mostly the hydrate S1 form”.

For `C[C@]12CC[C@H](O)CC1=CC[C@@H]1[C@@H]2CC[C@]2(C)C(=O)CC[C@@H]12` [DHEA hydrate S1, Dehydroepiandrosterone], in data set [2] (listed as DHEA (form S1)), the solubility result was “about 17 μg/mL”. Further, the solubility thermodynamic in data set [2] (pH 6.8 phosphate buffer, pH 6.8, aqueous buffer, thermodynamic from solid, most stable form in the presence of water, read-out: equilibrium solubility) was 17 µg/mL.
